Results reported in PMC7252619 (PLoS ONE, 2020).
Where two headings read alike, the source gives them in different places.

Key:
human CD19+ B cells = assay: B-cell assay: IgG production of ODN2006-stimulated primary B cells (AlphaLISA); type: cell-based; settings: Homo sapiens, B-cell, 168 h; IgG production, ODN2006 0.1 μM, 7 days; mean of 4 independent experiments; read-out: B-cell IC50
Experimental: (§1) Compounds were prepared as 10 mM stock solutions in dimethylsulfoxide (DMSO)and were tested at 50-10-1-0.1-0.01 and 0.001 μM in the 4 assays.
Blood samples of healthy volunteers were collected at the Red Cross of Mechelen, Belgium.
Highly purified naive peripheral human B cells were separated from fresh human PBMCs on magnetic columns by positive selection using CD19 magnetic beads according to the manufacturer’s instructions (MACS Miltenyi Biotech, Leiden, The Netherlands). […] Freshly isolated human CD19+ B cells were then plated at 25 000 cells per well in a 384-well plate (Perkin Elmer, Zaventem, Belgium) in 55 μL in DMEM medium containing 10% FCS and 5 μg/mL gentamicin sulphate. After 7 days of stimulation with 0.1 μM ODN2006 (InvivoGen, Toulouse, France), supernatant was taken for analysis of IgG using the AlphaLISA human IgG kit according to the manufacturer’s instructions (Perkin Elmer, Zaventem, Belgium).

VEGFR2 = VEGFR2 (Homo sapiens, UniProt P35968); assay: Kinase activity test (ReactionBiology), % enzyme activity relative to DMSO; type: biochemical; parameters: purchased ReactionBiology; settings: VEGFR2;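 note: VEGFR2 was one member of a ten-kinase screening panel testing marketed FDA-approved drugs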
Sequence of VEGFR2 (P35968 20-1356): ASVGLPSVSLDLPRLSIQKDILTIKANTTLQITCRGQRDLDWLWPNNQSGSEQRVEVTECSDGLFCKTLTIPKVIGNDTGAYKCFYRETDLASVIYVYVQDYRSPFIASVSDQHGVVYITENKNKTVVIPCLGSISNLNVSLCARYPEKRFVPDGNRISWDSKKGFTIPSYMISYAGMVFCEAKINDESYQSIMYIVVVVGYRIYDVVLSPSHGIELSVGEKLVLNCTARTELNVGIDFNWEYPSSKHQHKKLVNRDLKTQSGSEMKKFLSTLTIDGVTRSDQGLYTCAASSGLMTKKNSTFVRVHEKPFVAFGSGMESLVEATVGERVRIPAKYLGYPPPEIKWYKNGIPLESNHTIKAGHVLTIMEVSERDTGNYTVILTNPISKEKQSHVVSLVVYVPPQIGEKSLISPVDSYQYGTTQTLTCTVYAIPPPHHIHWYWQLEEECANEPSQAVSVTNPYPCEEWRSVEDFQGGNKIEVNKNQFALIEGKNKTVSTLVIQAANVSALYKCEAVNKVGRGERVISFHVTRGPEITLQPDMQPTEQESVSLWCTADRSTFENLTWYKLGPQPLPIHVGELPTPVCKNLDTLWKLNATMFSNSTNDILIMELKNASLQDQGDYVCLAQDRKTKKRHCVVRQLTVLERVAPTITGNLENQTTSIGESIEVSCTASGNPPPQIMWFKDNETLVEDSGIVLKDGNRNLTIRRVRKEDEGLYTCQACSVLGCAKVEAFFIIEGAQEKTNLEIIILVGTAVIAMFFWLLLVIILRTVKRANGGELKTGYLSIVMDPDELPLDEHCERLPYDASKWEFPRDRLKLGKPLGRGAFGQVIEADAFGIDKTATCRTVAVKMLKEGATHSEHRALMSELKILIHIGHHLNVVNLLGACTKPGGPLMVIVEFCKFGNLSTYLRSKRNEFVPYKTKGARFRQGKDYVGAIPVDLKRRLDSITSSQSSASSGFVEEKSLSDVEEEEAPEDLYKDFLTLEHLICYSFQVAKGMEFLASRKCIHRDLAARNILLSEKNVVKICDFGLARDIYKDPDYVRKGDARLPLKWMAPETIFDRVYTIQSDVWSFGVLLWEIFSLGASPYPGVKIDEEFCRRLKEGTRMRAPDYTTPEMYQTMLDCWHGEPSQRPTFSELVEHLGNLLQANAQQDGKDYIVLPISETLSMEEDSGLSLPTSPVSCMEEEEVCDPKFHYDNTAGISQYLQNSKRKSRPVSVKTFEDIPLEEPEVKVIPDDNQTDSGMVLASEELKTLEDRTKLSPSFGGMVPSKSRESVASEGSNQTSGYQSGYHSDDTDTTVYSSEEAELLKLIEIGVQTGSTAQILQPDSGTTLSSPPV

EPHB4 = biological target: T1, EPHB4 (Homo sapiens, UniProt P54760); assay: as above; type: biochemical; settings: EPHB4;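 note: EPHB4 was one of ten selected kinases in the screening panel, with enzyme activity expressed as a percentage of DMSO controls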
T1 construct: purchased ReactionBiology
T1 sequence (P54760 16-987): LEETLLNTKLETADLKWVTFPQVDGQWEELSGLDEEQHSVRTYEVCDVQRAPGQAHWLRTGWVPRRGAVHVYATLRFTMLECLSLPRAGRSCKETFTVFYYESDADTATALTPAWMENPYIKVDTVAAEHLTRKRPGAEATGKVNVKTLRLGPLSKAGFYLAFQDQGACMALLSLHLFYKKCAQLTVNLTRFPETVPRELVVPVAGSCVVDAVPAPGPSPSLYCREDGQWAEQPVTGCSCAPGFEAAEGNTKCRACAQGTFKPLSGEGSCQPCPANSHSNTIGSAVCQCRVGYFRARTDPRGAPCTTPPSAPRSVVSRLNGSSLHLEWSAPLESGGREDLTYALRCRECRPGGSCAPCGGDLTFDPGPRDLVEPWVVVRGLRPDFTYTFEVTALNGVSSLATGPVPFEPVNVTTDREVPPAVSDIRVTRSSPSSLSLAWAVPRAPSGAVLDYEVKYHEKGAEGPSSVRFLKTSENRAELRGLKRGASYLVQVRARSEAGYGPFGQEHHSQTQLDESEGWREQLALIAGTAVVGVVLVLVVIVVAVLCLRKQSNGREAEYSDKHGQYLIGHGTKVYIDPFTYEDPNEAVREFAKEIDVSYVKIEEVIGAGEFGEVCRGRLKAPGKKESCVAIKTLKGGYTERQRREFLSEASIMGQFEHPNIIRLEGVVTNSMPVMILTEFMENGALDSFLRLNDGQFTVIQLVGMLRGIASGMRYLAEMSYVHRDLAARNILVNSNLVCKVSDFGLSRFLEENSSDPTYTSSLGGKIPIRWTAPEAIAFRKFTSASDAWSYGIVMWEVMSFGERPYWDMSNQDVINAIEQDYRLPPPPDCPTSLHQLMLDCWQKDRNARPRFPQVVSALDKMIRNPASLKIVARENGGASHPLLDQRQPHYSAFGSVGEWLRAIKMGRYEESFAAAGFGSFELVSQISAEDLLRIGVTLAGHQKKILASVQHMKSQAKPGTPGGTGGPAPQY

[1] = WST-1 cytotoxicity assay on Jurkat cells (T-cell line); type: cell-based, human; settings: human, Jurkat cells (T-cell line), mean of 4 independent measures, read-out: Cytotoxicity, WST-1 Jurkat IC 50 (µM) Mean
Experimental: as §1
(§2) The human B cell line RPMI1788 (American Type Culture Collection, USA) and the human T cell line Jurkat (European Collection of Cell Cultures, ECACC, England) were maintained in RPMI1640 culture medium (BioWhittaker®, Lonza, Verviers, Belgium) containing 10% foetal calf serum (FCS, HyClone® Thermo Scientific, United Kingdom) and 5 μg/mL gentamicin sulphate (BioWhittaker®, Lonza, Verviers, Belgium) at 37°C and 5% CO2.
(§3) WST-1 assays on RPMI-1788 cells and Jurkat cells were performed as follows: 20 μL of test compound dilution were added to each well containing exponential growing cells and the plates were incubated for 48 h at 37°C, 5% CO2. Untreated cells and positive control (1% triton X-100, for the last 15 min) served as reference for maximum and minimum viability. At the end of incubation 100 μL of supernatant were removed and replaced by 10 μL of WST-1 solution (Cell Proliferation Reagent WST-1, Roche Applied Science).

NEK2 = biological target: T2, NEK2 (Homo sapiens, UniProt P51955); assay: Kinase activity test (ReactionBiology), % enzyme activity relative to DMSO; type: biochemical; settings: NEK2;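 note: FDA-approved drugs chosen by structure-based repositioning, each screened at 10 or 1 µM for kinase activity, expressed as percent of DMSO controls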
T2 construct: purchased ReactionBiology
T2 sequence (P51955 1-445): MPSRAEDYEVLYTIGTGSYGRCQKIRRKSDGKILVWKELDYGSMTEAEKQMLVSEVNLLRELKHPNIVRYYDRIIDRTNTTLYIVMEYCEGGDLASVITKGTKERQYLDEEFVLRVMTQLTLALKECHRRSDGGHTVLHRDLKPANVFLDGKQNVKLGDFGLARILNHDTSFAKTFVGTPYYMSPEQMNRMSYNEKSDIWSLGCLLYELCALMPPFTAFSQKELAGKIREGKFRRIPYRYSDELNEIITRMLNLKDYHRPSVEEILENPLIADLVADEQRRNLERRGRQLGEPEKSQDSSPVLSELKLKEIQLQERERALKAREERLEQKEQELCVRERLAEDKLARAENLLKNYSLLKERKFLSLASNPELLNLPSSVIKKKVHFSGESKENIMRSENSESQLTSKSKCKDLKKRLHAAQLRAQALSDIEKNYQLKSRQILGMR

DAPK1 = biological target: T3, DAPK1 (Homo sapiens, UniProt P53355); assay: as above; type: biochemical; settings: DAPK1
T3 construct: purchased ReactionBiology
T3 sequence (P53355 whole entry): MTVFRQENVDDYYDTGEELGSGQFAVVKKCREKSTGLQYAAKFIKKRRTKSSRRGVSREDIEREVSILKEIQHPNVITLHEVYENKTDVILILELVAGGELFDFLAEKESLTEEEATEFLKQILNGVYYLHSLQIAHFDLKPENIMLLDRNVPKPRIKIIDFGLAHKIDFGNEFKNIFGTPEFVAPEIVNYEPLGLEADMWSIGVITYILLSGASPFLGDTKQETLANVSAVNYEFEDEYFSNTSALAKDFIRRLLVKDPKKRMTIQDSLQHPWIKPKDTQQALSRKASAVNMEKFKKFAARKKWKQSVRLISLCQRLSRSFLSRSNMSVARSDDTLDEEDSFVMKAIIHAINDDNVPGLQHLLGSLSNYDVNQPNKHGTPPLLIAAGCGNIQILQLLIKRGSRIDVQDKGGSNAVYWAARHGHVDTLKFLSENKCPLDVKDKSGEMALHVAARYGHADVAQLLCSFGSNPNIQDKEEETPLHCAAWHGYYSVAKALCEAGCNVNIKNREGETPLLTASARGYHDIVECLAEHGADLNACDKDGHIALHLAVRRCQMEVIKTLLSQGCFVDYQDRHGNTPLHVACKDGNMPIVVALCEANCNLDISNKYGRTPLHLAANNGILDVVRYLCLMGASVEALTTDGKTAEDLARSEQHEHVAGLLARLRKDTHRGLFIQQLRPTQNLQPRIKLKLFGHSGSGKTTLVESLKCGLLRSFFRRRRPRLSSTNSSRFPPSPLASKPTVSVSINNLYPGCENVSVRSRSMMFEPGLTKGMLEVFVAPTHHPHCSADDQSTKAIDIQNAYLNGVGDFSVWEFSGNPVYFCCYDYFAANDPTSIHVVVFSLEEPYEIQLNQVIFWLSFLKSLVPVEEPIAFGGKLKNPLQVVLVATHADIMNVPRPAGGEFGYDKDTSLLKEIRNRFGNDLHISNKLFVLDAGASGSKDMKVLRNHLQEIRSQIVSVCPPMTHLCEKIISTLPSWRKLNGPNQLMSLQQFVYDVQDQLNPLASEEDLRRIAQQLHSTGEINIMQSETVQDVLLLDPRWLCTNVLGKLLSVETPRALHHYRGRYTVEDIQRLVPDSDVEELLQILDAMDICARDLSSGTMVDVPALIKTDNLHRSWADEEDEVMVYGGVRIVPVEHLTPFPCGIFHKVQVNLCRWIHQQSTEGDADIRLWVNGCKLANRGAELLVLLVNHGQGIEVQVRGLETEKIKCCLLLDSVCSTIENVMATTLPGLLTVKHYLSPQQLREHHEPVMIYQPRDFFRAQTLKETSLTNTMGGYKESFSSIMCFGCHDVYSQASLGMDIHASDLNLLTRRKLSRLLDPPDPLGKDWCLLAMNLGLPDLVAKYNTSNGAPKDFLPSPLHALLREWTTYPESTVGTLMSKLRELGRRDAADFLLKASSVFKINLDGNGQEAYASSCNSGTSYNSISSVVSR

[2] = WST-1 cytotoxicity assay on RPMI1788 cells (B-cell line); type: cell-based, human; settings: human, RPMI1788 cells (B-cell line), mean of 4 independent measures, read-out: Cytotoxicity, WST-1 RPMI 1788 IC 50 (µM) Mean
Experimental: as §1, §2, §3

MAP2K2 = biological target: T4, MAP2K2 (Homo sapiens, UniProt P36507); assay: Kinase activity test (ReactionBiology), % enzyme activity relative to DMSO; type: biochemical; settings: MEK2
T4 construct: purchased ReactionBiology
T4 sequence (P36507 whole entry): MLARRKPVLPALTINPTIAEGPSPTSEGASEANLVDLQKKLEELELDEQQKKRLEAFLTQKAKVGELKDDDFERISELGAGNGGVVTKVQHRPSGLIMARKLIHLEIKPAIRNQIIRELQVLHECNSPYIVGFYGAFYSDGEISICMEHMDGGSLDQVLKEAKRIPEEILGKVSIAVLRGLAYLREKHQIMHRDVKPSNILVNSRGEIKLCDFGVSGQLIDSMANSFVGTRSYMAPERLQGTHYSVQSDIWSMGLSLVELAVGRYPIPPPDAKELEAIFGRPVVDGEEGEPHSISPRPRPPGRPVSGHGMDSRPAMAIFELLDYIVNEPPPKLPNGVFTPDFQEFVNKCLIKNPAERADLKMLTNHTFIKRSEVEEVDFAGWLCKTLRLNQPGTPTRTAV

CK1d = biological target: T5, CK1d (Homo sapiens, UniProt P48730); assay: as above; type: biochemical; settings: CK1d
T5 construct: purchased ReactionBiology
T5 sequence (P48730 whole entry): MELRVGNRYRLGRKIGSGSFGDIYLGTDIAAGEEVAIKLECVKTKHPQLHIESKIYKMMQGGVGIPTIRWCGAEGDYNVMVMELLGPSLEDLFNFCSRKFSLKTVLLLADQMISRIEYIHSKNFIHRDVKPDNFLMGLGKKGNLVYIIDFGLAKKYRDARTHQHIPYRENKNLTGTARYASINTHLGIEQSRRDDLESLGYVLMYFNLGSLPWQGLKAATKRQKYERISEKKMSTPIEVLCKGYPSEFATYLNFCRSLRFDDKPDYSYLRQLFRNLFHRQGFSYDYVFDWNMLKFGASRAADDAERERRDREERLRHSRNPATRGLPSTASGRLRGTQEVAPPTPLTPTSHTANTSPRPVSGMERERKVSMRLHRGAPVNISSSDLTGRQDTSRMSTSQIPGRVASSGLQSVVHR

[3] = test system: human PBMCs (responder cells) with RPMI1788 stimulator cells; assay: Mixed Lymphocyte Reaction (MLR, T cell assay), 3H-thymidine incorporation; type: cell-based; settings: Homo sapiens, RPMI-1788; mean of 4 independent measures; read-out: T-cell efficacy, MLR IC 50 (µM) Mean
[4] = Average, read-out: % Enzyme Activity (relative to DMSO controls), Average
[5] = replicate Data 1, read-out: % Enzyme Activity (relative to DMSO controls), Data 1
[6] = replicate Data 2, read-out: % Enzyme Activity (relative to DMSO controls), Data 2
[7] = 1 uM, Average, read-out: % Enzyme Activity (relative to DMSO controls), Average
[8] = 1 uM, replicate Data 1, read-out: % Enzyme Activity (relative to DMSO controls), Data 1
[9] = 1 uM, replicate Data 2, read-out: % Enzyme Activity (relative to DMSO controls), Data 2
[10] = 10 uM, Average, read-out: % Enzyme Activity (relative to DMSO controls), Average
[11] = 10 uM, replicate Data 1, read-out: % Enzyme Activity (relative to DMSO controls), Data 1
[12] = 10 uM, replicate Data 2, read-out: % Enzyme Activity (relative to DMSO controls), Data 2
[13] = compound 1μM, relative to DMSO controls, read-out: % Enzyme activity at 1μM
[14] = compound 10μM, relative to DMSO controls, read-out: % Enzyme activity at 10μM

IC50 (human CD19+ B cells): > 50 µM | remaining activity at 1 µM (VEGFR2; [4]): 111% | remaining activity at 1 µM (VEGFR2; [5]): 111% | remaining activity at 1 µM (VEGFR2; [6]): 111% | remaining activity at 10 µM (VEGFR2; [4]): 98.3% | remaining activity at 10 µM (VEGFR2; [5]): 98.4% | remaining activity at 10 µM (VEGFR2; [6]): 98.2% | remaining activity at 1 µM (EPHB4; [4]): 101% | remaining activity at 1 µM (EPHB4; [5]): 100% | remaining activity at 1 µM (EPHB4; [6]): 102% | remaining activity at 10 µM (EPHB4; [4]): 85.4% | remaining activity at 10 µM (EPHB4; [5]): 84.1% | remaining activity at 10 µM (EPHB4; [6]): 86.8% | remaining activity at 1 µM (NEK2; [7]): 79.9% | remaining activity at 1 µM (NEK2; [8]): 73.6% | remaining activity at 1 µM (NEK2; [9]): 86.1% | remaining activity at 10 µM (NEK2; [10]): 71.7% | remaining activity at 10 µM (NEK2; [11]): 77.2% | remaining activity at 10 µM (NEK2; [12]): 66.2% | remaining activity at 1 µM (NEK2; [13]): 96.1% | remaining activity at 10 µM (NEK2; [14]): 59% | remaining activity at 1 µM (DAPK1; [4]): 99.3% | remaining activity at 1 µM (DAPK1; [5]): 103% | remaining activity at 1 µM (DAPK1; [6]): 95.9% | remaining activity at 10 µM (DAPK1; [4]): 81.1% | remaining activity at 10 µM (DAPK1; [5]): 80.8% | remaining activity at 10 µM (DAPK1; [6]): 81.4% | remaining activity at 1 µM (MAP2K2; [4]): 96.1% | remaining activity at 1 µM (MAP2K2; [5]): 96.6% | remaining activity at 1 µM (MAP2K2; [6]): 95.7% | remaining activity at 10 µM (MAP2K2; [4]): 59% | remaining activity at 10 µM (MAP2K2; [5]): 60.6% | remaining activity at 10 µM (MAP2K2; [6]): 57.4% | remaining activity at 1 µM (CK1d; [7]): 87.7% | remaining activity at 1 µM (CK1d; [8]): 86.5% | remaining activity at 1 µM (CK1d; [9]): 88.9% | remaining activity at 10 µM (CK1d; [10]): 50.2% | remaining activity at 10 µM (CK1d; [11]): 51.1% | remaining activity at 10 µM (CK1d; [12]): 49.4% | remaining activity at 1 µM (CK1d; [13]): 87.7% | remaining activity at 10 µM (CK1d; [14]): 50.2%
SMILES: Nc1ncnc2c1ncn2[C@@H]1O[C@H](CO)[C@@H](O)[C@H]1O [Adenosine, reference compound]
IC50 at 48 h [1]: > 50 µM | IC50 at 48 h [2]: > 50 µM | IC50 [3]: > 50 µM
